Patent publication US6849645B2, “Method of increased bioavailability of nutrients and pharmaceutical preparations with tetrahydropiperine and its analogues and derivatives” (priority 2000, dated 2005)
“Also recorded” adds a separate entry of the source.

Tests used:
[1] = In vitro DPPH radical scavenging method (THC with or without THP); format: biochemical
Protocol: The bioenhancing potential of THP on the free-radical scavenging properties of topically applied THC was evaluated. In this in vitro DPPH radical scavenging method, the ability of an anti-oxidant to bind and inactivate the 1,1 diphenyl-2-picrylhydrazyl radical, or DPPH, was measured. DPPH is considered an example of a very stable free radical. The control sample contained 0.01% of THC while active samples contained 0.01% of THC with THP concentrations ranging from 0.1%-0.0001%. Additionally, controls containing various concentrations of THP alone were also tested for DPPH binding.

[2] = tested on: tobacco cut worm, Spodoptera litura F.; assay: whole plant or invertebrate; settings: 48 hours
Protocol: The tetrahydropiperine was tested against tobacco cut worm, Spodoptera litura F. to determine its possible increased kill rate when used with Fenvalerate—a synthetic pyrethroid.
• a. Preparation of test solution—0.5 g of the test product was dissolved in 1 ml of Ethanol and made up to 100 ml in standard volumetric flask using suitable emulsifier. This solution contains 5000 ppm a.i. (0.5 percent). Further, serial dilution was made to get 0.25, 0.125 and 0.0625% of the test product. To each of these test solutions, Fenvalerate was added to get 250 ppm of Fenvalerate a.i. in the final volume. For comparison 0.5 percent of Tetrahydropiperine, Ethanol 1.0 percent solution and 250 ppm a.i. of Fenvalerate was used. • b. Bioassay—Laboratory reared 7 day old larvae of tobacco cut worm, Spodoptera litura were used in the experiment. After a series of preliminary tests the concentrations chosen for the experiment were 0.5, 0.25, 0.125 and 0.0625 percent tetrahydropiperine. Fresh castor leaves were dipped for 30 seconds in above concentrations of test and standard compounds and blank solutions. After proper drying, the treated leaves were transferred to plastic containers. To each container 5 larvae were released. This was repeated four times so as to have 20 larvae for each concentration. Larvae in control set were fed with leaves dipped in water. Observations were recorded for larval mortality after 48 hours of exposure. Results

Earthworms = assay: Albendazole induced anthelmintic activity on earthworms (paralysis and death); format: in vivo, earthworm
Protocol: An experiment to see how tetrahydropiperine enhances the skin permeability of anthelmintic drugs such as albendazole on intestinal worms was conducted. However, as a preliminary study towards this, tests on earthworms were conducted.
Earthworms were obtained from the Al Ameen College of Pharmacy, Bangalore. Albendazole (Zentel) was obtained from Smith Kline Beecham Pharmaceuticals, Bangalore. The aqueous test solution contained tetrahydropiperine (Tetraperine™, A proprietary product of Sabinsa Corporation, USA) of 0.1% and 0.2% w/v suspended in 0.25% w/v sodium carboxy methyl cellulose.
1. Effect of Albendazole: Earth worms of similar length and weight were divided into three groups of six worms each. […] The time of onset of paralysis was noted and the death of the worms were observed and recorded as above.

[3] = Primary skin irritation potential, Draize's method; format: in vivo, New Zealand White rabbits
Protocol: The study was designed to determine the primary skin irritation potential on New Zealand White rabbits following the guidelines provided by Gaitonde Committee, CIB, New Delhi, India
New Zealand White, healthy, adult male and female rabbits, each group comprising of 3 randomly selected animals of each sex.
0.5 ml of the test substance was applied to dehaired intact and abraded skin sites of each test animal. Care was taken to note that the abrasions penetrated the Stratum corneum, but not the dermis. A gauze patch was secured over each treated area using tape. The patch and unabsorbed test substance were removed after 24 hours. Each site of application was carefully observed and the reaction evaluated according to Draize's method at 24 and 72 hours.

[4] = 48 hour skin patch test for irritation in humans; format: in vivo, human
Protocol: In another aspect of the present invention, a study was conducted to determine whether a topical composition containing THP (98% purity), at a level of 0.01% and 0.1% by weight, which is preferred topical dose range for the compound, would produce symptoms of topical irritation. A skin patch test using THP in a petrolatum vehicle was conducted on 50 healthy volunteers for 48 hr with reading of the results after 48 hr and 72 hr. […] The irritation score was reported by the supervising physician, a practicing dermatologist, as 0. […] Based on previous experience with the parent compound, THP should not irritate the stomach mucosa at dose level of up to 50 mg per os in an adult healthy volunteer.
The 48 hour Repeat Insult Patch Test was used to evaluate skin irritation potential of the test compound.
50 Male or female subjects aged between 18 and 87 years participated in the study. 5 male and 41 female subjects completed the study. The subjects were in good health and using no medications from 30 days prior to the commencement of the study.
The test material was applied occlusively, 0.1% w/w diluted in petrolatum. 0.2 g or 0.2 cc of the test material was dispensed into the skin of the upper back. Paper tape such as 3M Micropore™ or Kendall Tenderskin™ was used for fixation after preparation of the surrounding skin with an adhesion enhancer such as Mastitol™. The subject was instructed to avoid exposure to water or to direct sunlight during the 48 hour observation period. The tape was removed at the test facility at the end of the exposure period and evaluated by trained personnel under the supervision of the principal investigator.
Reactions were scored based on the appearance of erythema or edema immediately following removal of the patch and again at 24 hours following removal. Subjects were instructed to report any delayed reactions occurring after the final reading.

[5] = Solubility (specification of THP); format: physicochemical
[6] = Albendazole 0.2% + THP 0.1% vs Albendazole 0.2%
[7] = Albendazole 0.2% + THP 0.1% w/v
[8] = Albendazole 0.2% + THP 0.2% vs Albendazole 0.2%
[9] = Albendazole 0.2% + THP 0.2% w/v
[10] = THP 0.01% and 0.1% by weight in petrolatum, 48 hr patch, read after 48 hr and 72 hr

O=C(CCCCc1ccc2c(c1)OCO2)N1CCCCC1 [Tetrahydropiperine, 1-[5-(1,3-Benzodioxol-5 yl)-1-oxo-pentanoyl]-Piperidine]
enhancement of the antioxidant properties of THC as compared to THC alone ([1]; 0.01% THC with THP 0.1%-0.0001%): up to 30%
THC bioenhancing activity ([1]; 0.01% THC with THP at highest dilution of 0.0001%): still displayed some beneficial THC bioenhancing activity
anti-oxidant properties (DPPH binding) ([1]; THP alone, various concentrations): did not show any significant anti-oxidant properties
PERCENT MORTALITY (Mean of 4 replications) ([2]; Tetrahydropiperine 0.0625% + 250 ppm a.i. Fenvalerate): 50%
PERCENT MORTALITY (Mean of 4 replications) ([2]; Tetrahydropiperine 0.0625% + 250 ppm a.i. Fenvalerate, listed as tetrahydropiperine): did not enhance the activity
PERCENT MORTALITY (Mean of 4 replications) ([2]; Tetrahydropiperine 0.125% + 250 ppm a.i. Fenvalerate): 65%
PERCENT MORTALITY (Mean of 4 replications) ([2]; Tetrahydropiperine 0.5% + 250 ppm a.i. Fenvalerate): 100%
PERCENT MORTALITY (Mean of 4 replications) ([2]; Tetrahydropiperine 0.5% alone): 0%
PERCENT MORTALITY (Mean of 4 replications) ([2]; Tetrahydropiperine 0.5% alone, listed as tetrahydropiperine): did not show any activity
PERCENT MORTALITY (Mean of 4 replications) ([2]; Tetrahydropiperine […] + 250 ppm a.i. Fenvalerate): 85%
% Reduction in time for Death (Earthworms; [6]): 11.03%
% Reduction in time for Paralysis (Earthworms; [6]): 12.81%
Time taken in minutes (Mean ± SEM), Death (Earthworms; [7]): 98.16 ± 5.19 min
Time taken in minutes (Mean ± SEM), Paralysis (Earthworms; [7]): 86.31 ± 4.3 min
% Reduction in time for Death (Earthworms; [8]): 32.32%
% Reduction in time for Paralysis (Earthworms; [8]): 37.36%
Time taken in minutes (Mean ± SEM), Death (Earthworms; [9]): 74.64 ± 2.98 min
Time taken in minutes (Mean ± SEM), Paralysis (Earthworms; [9]): 62.01 ± 3.33 min
change in time taken for paralysis and death (Earthworms; Albendazole 0.2% co-administered with tetrahydropiperine 0.2%): showed a reduction
% Reduction in time for Death (Earthworms; THP 0.1% alone): Nil
% Reduction in time for Paralysis (Earthworms; THP 0.1% alone): Nil
change in time of paralysis and death compared with standard concentration (Earthworms; Tetrahydropiperine 0.1% with albendazole 0.2%, unpaired t test): no change
skin reaction (erythema, edema, irritation) ([3]; 0.5 ml on intact and abraded skin sites, patch 24 hours, evaluated at 24 and 72 hours): No erythema or edema; also recorded: did not cause any irritation
primary skin irritation score ([3]; intact and abraded skin, Draize's method, 24 and 72 hours): zero
skin reaction (erythema, edema, primary contact irritation) ([4]; 0.1% w/w in petrolatum, occlusive, 48 hours exposure): No erythema or edema reactions; also recorded: appears not to produce primary (contact) irritation
irritation score [4, 10]: 0
skin irritation [4, 10]: Neither dose caused skin irritation
Solubility ([5]; chloroform): Soluble
Solubility ([5]; methanol): Soluble
Solubility ([5]; water): insoluble
